The assay deals with MKN45 cells. As to the kind of experiment: ALA-PDT using LNP under 980-nm NIR irradiation (MTT viability). Format: cell-based, Human. As to the method:
MKN45 cells were irradiated with NIR in the presence of ALA and LNP to confirm whether cell death occurred.
A medium in a 10-cm dish containing MKN45 cells cultured in a liquid medium (RPMI-1640, FBS(+), and PSN(+)) was aspirated, and the cells were washed with 3 ml of a PBS solution. 1 ml of trypsin was added thereto, and the mixture was incubated (37° C. and 5% CO2) for 5 minutes. The enzymatic reaction of trypsin was terminated by the addition of 5 ml of a fresh medium. A total of 6 ml of the reaction mixture was centrifuged at 1100 rpm for 5 minutes. In this procedure, 10 μl of the sample was mixed with a dye trypan blue, which dyes dead cells. The number of cells was counted using a hemacytometer. After the centrifugation, the supernatant was aspirated, and 2 ml of a fresh medium was added to the cells. The resulting cells were inoculated at a concentration of 100 μl/well (2×10^4 cells/well) to a 96-well plate for ALA concentrations 1000, 100, 10, and 0 μM and a blank. LNP(+) and LNP(−) series were prepared per sample, and these samples were divided into two different plates for NIR(+) and NIR(−). After overnight culture, the medium in each well was discarded. 100 μl of a fresh medium (containing 2.5 mg/ml LNP for the LNP(+) series) and 0.2 M ALA adjusted to the concentrations mentioned above were added to each well of the plates. After incubation for 4 hours, each plate was irradiated from 50 mm above with 980-nm NIR (400 mA) for 3 min/well. After overnight culture, the medium in each well was discarded, and the cells were washed with 100 μl of a PBS solution. 100 μl of a fresh medium and 10 μl of an MTT methanol solution diluted 10-fold with PBS were added to each well. After incubation for 4 hours, 10% SDS was added thereto at a concentration of 100 μl/well, and the mixture was incubated overnight. The absorbance was measured at 570 nm to 660 nm.
ALA-PDT was performed using commercially available LNP in the same way as in Example 4 except that the concentration of MKN45 cells was changed to 2×10^4 cells/well; the ALA concentrations were changed to 2000, 1000, 100, 10, and 0 μM; the culture time after addition of ALA was changed from 4 hours to 24 hours; and the NIR irradiation time was changed to 90 min/well.
ALA-PDT was performed using synthetic LNP in the same way as in Example 5 except that: the concentration of the synthetic LNP prepared in Example 6 was set to 2 mg/mL; and the ALA concentrations were changed to 2000, 1500, 1000, 100, and 0 μM.

In the case of `NCC(=O)CCC(=O)O` [ALA, 5-aminolevulinic acid], the cell viability entry (Example 4, FIG. 4, LNP(−),NIR(+), ALA 0-1000 μM, 4 h, 980-nm NIR 3 min/well) is on record as “slight reduction in viability was confirmed”; the cell viability entry (Example 4, FIG. 4, no NIR irradiation, ALA 0-1000 μM, 4 h, LNP(+) series 2.5 mg/ml and LNP(−) series) is given as “no change was observed in cell viability”; the cell viability entry (Example 5, FIG. 5, LNP(−),NIR(+), ALA 0-2000 μM, 24 h, NIR 90 min/well) was “no change was confirmed in cell viability”; the cell viability result (Example 5, FIG. 5, no NIR irradiation, ALA 0-2000 μM, 24 h) is listed as “no change was confirmed in cell viability”.

The values are drawn from patent US9757357B2, “Photodynamic therapy or diagnostic agent, using infrared-spectrum light” (Tokyo Institute of Technology, priority 2011, dated 2017).
